# Values quoted from earlier work as cited in patent US8481574B2, “Compounds as cannabinoid receptor ligands” (priority 2006, dated 2013).
# Columns and labels:
# animal models of pain = details: animal models of acute thermal pain, persistent pain, inflammatory pain and neuropathic pain
# [1] = at fully efficacious doses
# mice = details: model for post-menopausal osteoporosis
# rodent models of pain = details: rodent models of neuropathic, incisional, and both chronic and acute inflammatory pain
# microglia = details: in vitro
# [2] = tested on: apolipoprotein E knockout mice; details: low doses
# [3] = tested on: CB1 receptor knockout mice
# rat = rat formalin model of persistent pain
molecule,measurement,setting,value
CN1CCCCC1Cn1cc(C(=O)c2cc([N+](=O)[O-])ccc2I)c2ccccc21 (stereo not shown) [AM-1241],analgesic efficacy,animal models of pain,robust analgesic efficacy
same,CB1 receptor-mediated CNS side effects,[1],devoid of typical CB1 receptor-mediated CNS side effects
SR144528,effect on ovariectomy-induced bone loss,mice,reverse ovariectomy-induced bone loss
same,effect on osteoclast activity,osteoclast,inhibit osteoclast activity
COc1ccc2c(c1)c(CCN1CCOCC1)c(C)n2C(=O)c1cccc(Cl)c1Cl [GW405833],efficacy in pain models,rodent models of pain,efficacious
same,CB1 receptor-mediated CNS side effects,[1],devoid of typical CB1 receptor-mediated CNS side effects
CCCC(C)(C)c1ccc2c(c1)OC(C)(C)[C@@H]1CC=C(C)C[C@@H]21 [JWH-133],effect on β-amyloid-induced microglial activation and neurotoxicity,microglia,abrogated β-amyloid-induced microglial activation and neurotoxicity
(−)-Δ^9-Tetrahydrocannabinol [Δ^9-THC],effect on progression of atherosclerotic lesions,[2],slowed the progression of atherosclerotic lesions
same,analgesic efficacy,[3],retains some analgesic efficacy
CCCCCCC(C)(C)c1cc(OC)c([C@@H]2C=C(CO)[C@@H]3C[C@H]2C3(C)C)c(OC)c1 [HU-308],antinociceptive response,rat,elicits an antinociceptive response
